Assays:
[1] = test system: HCV replicon (Clone A cells, Huh7, subgenomic hepatits C virus RNA); test: HCV Neo screening assay (HCV replicon, NPTII ELISA); assay type: cell-based, hepatitis C virus; conditions: for inhibition at 25 µM / EC50: Hepatitis C virus, Huh-7; for inhibition at 25 µM: primary screening, 25 μM final concentration, 24 hours, percent inhibition of viral replication, read-out: HCV Inh; for EC50: Secondary Data, HCV; for HCV TI: therapeutic index CC50/EC50, HCV
RSV minigenome = test: RSV minigenome-dependent β-galactosidase expression assay (RSV β-Gal); assay type: cell-based, respiratory syncytial virus; conditions: for EC50 / inhibition at 25 µM: human respiratory syncytial virus; for EC50: Secondary Data, RSV, read-out: RSV EC50; for inhibition at 25 µM: primary screening, 25 μM final concentration, 24 hours, percent inhibition of viral replication, read-out: RSV Inh; for RSV TI: therapeutic index CC50/EC50, RSV
WNV (WN-hRuPac cells) = test: WNV antiviral activity, WN-hRuPac cells, Renilla luciferase; assay type: cell-based, West Nile virus; conditions: for EC50 / inhibition at 25 µM: West Nile virus; for EC50: Secondary Data, WNV, read-out: WNV EC50; for inhibition at 25 µM: primary screening, 25 μM final concentration, 24 hours, percent inhibition of viral replication, read-out: WNV Inh; for WNV TI: therapeutic index CC50/EC50, WNV
YFV (YF-hRuPac cells) = test: microbe, parasite or virus in culture; assay type: cell-based, yellow fever virus; conditions: for inhibition at 25 µM / EC50: Yellow fever virus; for inhibition at 25 µM: 24 h, read-out: YFV Inh; for EC50: read-out: YFV EC50
DNG (D2-hRuPac cells) = test: DNG antiviral activity, D2-hRuPac cells, Renilla luciferase; assay type: cell-based, Dengue fever virus; conditions: Dengue virus, secondary screening
EBOV minigenome = test: microbe, parasite or virus in culture; assay type: cell-based, Ebola virus; conditions: Zaire ebolavirus; for inhibition at 25 µM: 24 h, read-out: EBOV Inh; for EC50: read-out: EBOV EC50
SINV (SR19-F-luc cells) = test: SINV antiviral activity, SR19-F-luc cells, Firefly luciferase; assay type: cell-based; conditions: Sindbis virus; for inhibition at 25 µM: primary screening, 25 μM final concentration, 24 hours, percent inhibition of viral replication, read-out: SINV Inh; for EC50: secondary screening, SR19-F-luc cells

Row | SMILES | inhibition at 25 µM [1] [%] | EC50 (RSV minigenome) [µM] | inhibition at 25 µM (RSV minigenome) [%] | EC50 (WNV (WN-hRuPac cells)) [µM] | inhibition at 25 µM (WNV (WN-hRuPac cells)) [%] | WNV TI (WNV (WN-hRuPac cells)) | YFV TI (YFV (YF-hRuPac cells)) | inhibition at 25 µM (YFV (YF-hRuPac cells)) [%] | EC50 (YFV (YF-hRuPac cells)) [µM] | EC50 (DNG (D2-hRuPac cells)) [µM] | inhibition at 25 µM (EBOV minigenome) [%] | EC50 (EBOV minigenome) [µM] | inhibition at 25 µM (SINV (SR19-F-luc cells)) [%] | EC50 (SINV (SR19-F-luc cells)) [µM] | CC50 (in vitro; DNG CC50) [µM] | CC50 (in vitro; EBOV CC50) [µM] | CC50 (in vitro; RSV CC50) [µM] | CC50 (in vitro; SINV CC50) [µM] | CC50 (in vitro; WNV CC50) [µM] | CC50 (in vitro; YFV CC50) [µM] | other results
1 | Cc1ccc2nc(C)cc(NCc3ccco3)c2c1 [Compound 23] | 13.7 | 2.91 | 92 | 3.76 | 70.3 | 15.41 | 8.94 | 86.3 | 6.48 | 25.8 | -1.14 | 75 | 22.8 | ≥ 75 | 57.9 | 57.9 | 57.9 | 57.9 | 57.9 | 57.9 | RSV TI (RSV minigenome): 19.91; CC50 (in vitro; HCV CC50): ≥ 75 µM
2 | COC(=O)c1ccc(Nc2cc(C)nc3ccc(Cl)cc23)cc1 [Compound 60] | 71.3 | ≥ 75 | 38.1 | 14.6 | 68.3 | 5.14 | 2.17 | 79.4 | 34.6 | 15.2 | 57.4 | 75 | 45.8 | 12 | ≥ 75 | ≥ 75 | ≥ 75 | ≥ 75 | ≥ 75 | ≥ 75 | EC50 [1]: 1.4 µM; HCV TI [1]: 32.5; CC50 (in vitro; HCV CC50): 45.5 µM
3 | CC(=O)c1cccc(Nc2cc(C)nc3ccccc23)c1 [Compound 17] | 12.3 | 37.3 | 50.7 | ≥ 75 | 40.3 |  | 1.18 | 54 | 63.6 | ≥ 75 | -42 | 75 | 72.1 | 3.83 | ≥ 75 | ≥ 75 | ≥ 75 | ≥ 75 | ≥ 75 | ≥ 75 | RSV TI (RSV minigenome): 2.01; CC50 (in vitro; HCV CC50): 30.4 µM
4 | Cc1ccc2nc3c(c(Nc4ccccc4)c2c1)CCC3 [Compound 27] | 113 | 6 | 92.2 | 2.78 | 60 | 18.24 | 4.3 | 70.2 | 11.8 | 38.4 | -4.87 | 63.4 | 70.6 | 1.88 | 50.7 | 50.7 | 50.7 | 50.7 | 50.7 | 50.7 | EC50 [1]: 14 µM; HCV TI [1]: 1.73; RSV TI (RSV minigenome): 8.45; CC50 (in vitro; HCV CC50): 24.2 µM
5 | c1cncc(CNc2c3ccccc3nc3ccccc23)c1 [Compound 5] | 211 | 2.8 | 98.5 | 7.15 | 89.3 | 3.99 | 2.57 | 84.7 | 11.1 | 3.64 | 86 | 15.3 | 29.6 | 7.02 | 28.6 | 28.6 | 28.6 | 28.6 | 28.6 | 28.6 | EC50 [1]: 1.76 µM; HCV TI [1]: 5.49; RSV TI (RSV minigenome): 10.2; CC50 (in vitro; HCV CC50): 9.67 µM
6 | CCOc1ccc2nc(C)cc(Nc3ccc(C)c(Cl)c3)c2c1 [Compound 45] | 119 | 2.95 | 99.9 | 3.17 | 99 | 7.99 | 11.95 | 100 | 2.12 | 5.04 | 96.2 | 75 | 95.7 | 3.23 | 25.3 | 25.3 | 25.3 | 25.3 | 25.3 | 25.3 | EC50 [1]: 4.4 µM; HCV TI [1]: 1.06; RSV TI (RSV minigenome): 8.59; CC50 (in vitro; HCV CC50): 4.66 µM
7 | CCOC(=O)c1cnc2ccc(OCC)cc2c1Nc1ccccc1CC [Compound 34] | 78.6 | 5.08 | 77.3 | 39.1 | 60.4 | 1.58 | 2.69 | 58.5 | 23 | ≥ 75 | 53.8 | 75 | 34 | ≥ 75 | 61.9 | 61.9 | 61.9 | 61.9 | 61.9 | 61.9 | EC50 [1]: 11.4 µM; HCV TI [1]: 3.12; RSV TI (RSV minigenome): 12.19; CC50 (in vitro; HCV CC50): 35.6 µM
8 | CCOC(=O)c1cnc2ccc(F)cc2c1Nc1ccc(S(=O)(=O)Nc2nc(C)cc(C)n2)cc1 [Compound 74] | 39.4 | ≥ 75 | 26.6 | 9.72 | 90.5 | 7.72 | 7.75 | 93.5 | 9.68 | 4.08 | 76.1 |  | 19.4 | ≥ 75 | ≥ 75 | ≥ 75 | ≥ 75 | ≥ 75 | ≥ 75 | ≥ 75 | 
